Source: the Kinase Knowledgebase extract (Sharma et al. 2016)

What follows are molecules tested against MAPK14 (human) (UniProt Q16539) (assay: Inhibition of MAPK14 Kinase Activity).
MAPK14 (human), sequence (Q16539 whole entry, looked up): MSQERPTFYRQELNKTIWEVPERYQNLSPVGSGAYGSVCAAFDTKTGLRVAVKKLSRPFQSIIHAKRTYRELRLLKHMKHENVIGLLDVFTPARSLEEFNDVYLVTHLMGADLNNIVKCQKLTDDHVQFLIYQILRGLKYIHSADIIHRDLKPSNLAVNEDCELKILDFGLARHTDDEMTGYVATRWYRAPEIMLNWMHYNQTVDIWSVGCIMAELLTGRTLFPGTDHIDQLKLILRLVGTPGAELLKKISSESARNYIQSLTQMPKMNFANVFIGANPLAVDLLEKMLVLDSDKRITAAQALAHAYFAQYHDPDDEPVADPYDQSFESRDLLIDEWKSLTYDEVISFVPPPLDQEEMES

Compound	IC50 [µM]
Cc1c(F)cc(C(=O)NC2CC2)cc1-c1ccc2c(cnn2Cc2ccc(C(F)(F)F)cc2)c1	< 10
Cc1c(F)cc(C(=O)NC2CC2)cc1-c1ccc2c(cnn2-c2ccc(NCCCN(C)C)cc2)c1	< 10
Cc1c(F)cc(C(=O)NC(C)C)cc1-c1ccc2c(cnn2-c2ccccc2)c1	< 10
CCNC(=O)c1ccc(-c2n[nH]c3cc(-c4cc(C(=O)NCC)ccc4C)ccc23)nc1	< 10
CCCCNC(=O)c1cc(F)c(C)c(-c2ccc3c(cnn3-c3ccccc3)c2)c1	< 10
CNC(=O)Cc1ccc(-n2ncc3cc(-c4cc(C(=O)NC5CC5)cc(F)c4C)ccc32)cc1	< 10
Cc1c(F)cc(C(=O)NC2CC2)cc1-c1ccc2c(ccn2-c2ccc(C#N)cc2)c1	< 10
Cc1c(F)cc(C(=O)NCC2CC2)cc1-c1ccc2c(cnn2-c2ccccc2)c1	< 10
Cc1c(F)cc(C(=O)NC2CC2)cc1-c1ccc2c(cnn2-c2ccc(C(F)(F)F)cc2)c1	< 10
Cc1c(F)cc(C(=O)NC2CC2)cc1-c1ccc2c(cnn2Cc2cccc[n+]2[O-])c1	< 10
Cc1cccc(-n2ncc3cc(-c4cc(C(=O)NC5CC5)cc(F)c4C)ccc32)c1	< 10
Cc1c(F)cc(C(=O)Nc2ncccn2)cc1-c1ccc2c(cnn2-c2ccccc2)c1	< 10
Cc1c(F)cc(C(=O)NC2CC2)cc1-c1ccc2c(ccn2-c2cccnc2)c1	< 10
Cc1c(F)cc(C(=O)NC2CC2)cc1-c1ccc2c(cnn2Cc2cccnc2)c1	< 10
Cc1c(F)cc(C(N)=O)cc1-c1ccc2c(cnn2-c2ccccc2)c1	< 10
Cc1cc(-n2ncc3cc(-c4cc(C(=O)NC5CC5)cc(F)c4C)ccc32)nc(C)n1	< 10
Cc1c(F)cc(C(=O)NC2CC2)cc1-c1ccc2c(cnn2-c2cc(=O)[nH]cn2)c1	< 10
Cc1c(F)cc(C(=O)NC2CC2)cc1-c1ccc2c(ccn2-c2cccc(C#N)c2)c1	< 10
Cc1c(F)cc(C(=O)NC2CC2)cc1-c1ccc2c(cnn2-c2ccc(NCC3CCCCC3)cc2)c1	< 10
Cc1c(F)cc(C(=O)NC2CC2)cc1-c1ccc2c(cnn2-c2ccccc2)c1	< 10
Cc1c(F)cc(C(=O)NC2CC2)cc1-c1ccc2c(cnn2-c2ccc(NC3CCOCC3)cc2)c1	< 10

Compound	IC50 [µM]
Cc1c(F)cc(C(=O)NC2CC2)cc1-c1ccc2c(cnn2Cc2ccc[n+]([O-])c2)c1	< 10
Cc1c(F)cc(C(=O)NC2CC2)cc1-c1ccc2c(cnn2Cc2ccncc2)c1	< 10
Cc1c(F)cc(C(=O)NC2CC2)cc1-c1ccc2c(cnn2Cc2ccccn2)c1	< 10
Cc1c(F)cc(C(=O)NC2CC2)cc1-c1ccc2c(cnn2-c2ccc(NCC3CCCO3)cc2)c1 (configuration not stated)	< 10
Cc1cc(Cn2ncc3cc(-c4cc(C(=O)NC5CC5)cc(F)c4C)ccc32)no1	< 10
Cc1c(F)cc(C(=O)NC2CC2)cc1-c1ccc2c(cnn2Cc2cc[n+]([O-])cc2)c1	< 10
Cc1ccc(C(=O)NC2CCC2)cc1-c1ccc2c(cnn2-c2ccc(F)cc2)c1	< 10
Cc1ccc(C(=O)NC2CC2)cc1-c1ccc2c(cnn2-c2ccc(F)cc2)c1	< 10
Cc1c(F)cc(C(=O)NC2CC2)cc1-c1ccc2c(cnn2-c2ccc(Br)cc2)c1	< 10
COCCNc1ccc(-n2ncc3cc(-c4cc(C(=O)NC5CC5)cc(F)c4C)ccc32)cc1	< 10
Cc1c(F)cc(C(=O)NC2CC2)cc1-c1ccc2c(cnn2-c2ccc(S(C)(=O)=O)cc2)c1	< 10
Cc1c(F)cc(C(=O)NC2CCC2)cc1-c1ccc2c(cnn2-c2ccccc2)c1	< 10
Cc1c(F)cc(C(=O)NC2CC2)cc1-c1ccc2c(cnn2Cc2ccccc2)c1	< 10
Cc1c(F)cc(C(=O)NC2CC2)cc1-c1ccc2c(cnn2-c2ccc(N3CCOCC3)cc2)c1	< 10
Cc1c(F)cc(C(=O)NC2CC2)cc1-c1ccc2c(ccn2-c2ccccn2)c1	< 10
Cc1c(F)cc(C(=O)NC2CC2)cc1-c1ccc2c(cnn2-c2ccc(NCCN(C)C)cc2)c1	< 10
Cc1ccc(C(=O)Nc2ccc(F)cc2)cc1-c1ccc2c(cnn2-c2ccccc2)c1	< 10
Cc1c(F)cc(C(=O)NC2CCCC2)cc1-c1ccc2c(cnn2-c2ccccc2)c1	< 10
Cc1c(F)cc(C(=O)NC2CC2)cc1-c1ccc2c(cnn2-c2ccc(NCC(O)CO)cc2)c1 (configuration not stated)	< 10
CNC(=O)c1cc(F)c(C)c(-c2ccc3c(cnn3-c3ccccc3)c2)c1	< 10
COc1ccc(C2N=Nc3cc(-c4cc(C(=O)NC5CC5)ccc4C)ccc32)cc1 (configuration not stated)	< 10

Other lines, results leading:

IC50 [µM]	Compound
< 10	CCNC(=O)c1cc(F)c(C)c(-c2ccc3c(-c4ccc(F)cc4OC)n[nH]c3c2)c1
< 10	CCNC(=O)c1cc(F)c(C)c(-c2ccc3c(-c4ccc(C(F)(F)F)cc4)n[nH]c3c2)c1
< 10	CCn1nccc1NC(=O)c1cc(F)c(C)c(-c2ccc3c(-c4ccc(F)cc4)n[nH]c3c2)c1
< 10	Cc1c(F)cc(C(=O)NC2CC2)cc1-c1ccc2c(cnn2Cc2ccc(F)cc2)c1
< 10	Cc1ccc(C(=O)NC2CC2)cc1-c1ccc2c(-c3ccc(F)cc3)n[nH]c2c1
< 10	Cc1c(F)cc(C(=O)Nc2ccc(F)cc2)cc1-c1ccc2c(cnn2-c2ccccc2)c1
< 10	Cc1cnn(C)c1NC(=O)c1cc(F)c(C)c(-c2ccc3c(-c4ccc(F)cc4)n[nH]c3c2)c1
< 10	CCNC(=O)c1ccc(C)c(-c2ccc3c(-c4cnccn4)n[nH]c3c2)c1
< 10	CCNC(=O)c1cc(F)c(C)c(-c2ccc3c(-c4ccc(Cl)cc4)n[nH]c3c2)c1
< 10	Cc1c(F)cc(C(=O)Nc2ccnn2C)cc1-c1ccc2c(-c3ccc(F)cc3)n[nH]c2c1
< 10	Cc1c(F)cc(C(=O)NC2CC2)cc1-c1ccc2c(cnn2-c2ccc(F)cc2)c1
< 10	CCNC(=O)c1cc(F)c(C)c(-c2ccc3c(-c4cccnc4)n[nH]c3c2)c1
< 10	Cc1ccc(C(=O)Nc2c(C)cnn2C)cc1-c1ccc2c(-c3ccc(F)cc3)n[nH]c2c1
< 10	Cc1cc(F)ccc1-n1ncc2cc(-c3cc(C(=O)NC4CC4)cc(F)c3C)ccc21
< 10	CCNC(=O)c1ccc(C)c(-c2ccc3c(-c4ccc(S(C)(=O)=O)cc4)n[nH]c3c2)c1
< 10	CCNC(=O)c1cc(F)c(C)c(-c2ccc3c(-c4cnc(C)n4C)n[nH]c3c2)c1
< 10	CCNC(=O)c1ccc(C)c(-c2ccc3c(-c4ccc(OC)cc4)n[nH]c3c2)c1
< 10	CCNC(=O)c1ccc(C)c(-c2ccc3c(-c4ccc(F)cc4)n[nH]c3c2)c1
< 10	Cc1c(F)cc(C(=O)Nc2cc[nH]n2)cc1-c1ccc2c(cnn2-c2ccccc2)c1
< 10	Cc1c(F)cc(C(=O)Nc2cc[nH]n2)cc1-c1ccc2c(-c3ccc(F)cc3)n[nH]c2c1

IC50 [µM]	Compound
< 10	CCNC(=O)c1cc(F)c(C)c(-c2ccc3c(-c4ccccn4)n[nH]c3c2)c1
< 10	CCNC(=O)c1ccc(C)c(-c2ccc3c(-c4cncnc4)n[nH]c3c2)c1
< 10	CCNC(=O)c1cc(F)c(C)c(-c2ccc3c(cnn3-c3ccccc3)c2)c1
< 10	CCNC(=O)c1ccc(C)c(-c2ccc3c(-c4ccc(N5CCOCC5)nc4)n[nH]c3c2)c1
< 10	CCNC(=O)c1ccc(C)c(-c2ccc3c(-c4ccc(OCC)cc4)n[nH]c3c2)c1
< 10	CCNC(=O)c1ccc(C)c(-c2ccc3c(-c4ccc(F)nc4)n[nH]c3c2)c1
< 10	CCNC(=O)c1cc(F)c(C)c(-c2ccc3c(-c4ncccn4)n[nH]c3c2)c1
< 10	Cc1c(F)cc(C(=O)Nc2cccnn2)cc1-c1ccc2c(cnn2-c2ccccc2)c1
< 10	CCNC(=O)c1cc(F)c(C)c(-c2ccc3c(-c4cccc[n+]4[O-])n[nH]c3c2)c1
< 10	CCCNC(=O)c1cc(F)c(C)c(-c2ccc3c(cnn3-c3ccccc3)c2)c1
< 10	CCNC(=O)c1cc(F)c(C)c(-c2ccc3c(-c4cccnc4OC)n[nH]c3c2)c1
< 10	CCNC(=O)c1cc(F)c(C)c(-c2ccc3c(-c4ccnc(C)c4)n[nH]c3c2)c1
< 10	Cc1ccc(C(=O)Nc2c(C)noc2C)cc1-c1ccc2c(-c3ccc(F)cc3)n[nH]c2c1
< 10	CCNC(=O)c1cc(F)c(C)c(-c2ccc3c(-c4ccc(F)cc4C)n[nH]c3c2)c1
< 10	Cc1c(F)cc(C(=O)NC2CC2)cc1-c1ccc2c(-c3ccc(O)cc3)noc2c1
< 10	COc1ccc(-c2noc3cc(-c4cc(C(=O)NC5CC5)cc(F)c4C)ccc23)cc1
< 10	CCNC(=O)c1cc(F)c(C)c(-c2ccc3c(-c4ccc(C)cc4)n[nH]c3c2)c1
< 10	CCNC(=O)c1cc(F)c(C)c(-c2ccc3c(-c4ccc(OC)nc4)n[nH]c3c2)c1
< 10	CCNC(=O)c1ccc(C)c(-c2ccc3c(-c4cc(C)nn4C)n[nH]c3c2)c1
< 10	CCNC(=O)c1cc(F)c(C)c(-c2ccc3c(-c4c(C)noc4C)n[nH]c3c2)c1
